This is an account of results in ChEMBL document CHEMBL3124838, “Discovery of 6-aryl-azabenzimidazoles that inhibit the TBK1/IKK-ε kinases” (Bioorg Med Chem Lett, 2014).

For the first assay, the target named is Insulin-like growth factor 1 receptor (Homo sapiens) (UniProt P08069). As to the kind of experiment: Inhibition of human IGF-1R assessed as residual activity at 1 uM relative to control.
Sequence of Insulin-like growth factor 1 receptor (Homo sapiens) (P08069 31-736 limits assumed): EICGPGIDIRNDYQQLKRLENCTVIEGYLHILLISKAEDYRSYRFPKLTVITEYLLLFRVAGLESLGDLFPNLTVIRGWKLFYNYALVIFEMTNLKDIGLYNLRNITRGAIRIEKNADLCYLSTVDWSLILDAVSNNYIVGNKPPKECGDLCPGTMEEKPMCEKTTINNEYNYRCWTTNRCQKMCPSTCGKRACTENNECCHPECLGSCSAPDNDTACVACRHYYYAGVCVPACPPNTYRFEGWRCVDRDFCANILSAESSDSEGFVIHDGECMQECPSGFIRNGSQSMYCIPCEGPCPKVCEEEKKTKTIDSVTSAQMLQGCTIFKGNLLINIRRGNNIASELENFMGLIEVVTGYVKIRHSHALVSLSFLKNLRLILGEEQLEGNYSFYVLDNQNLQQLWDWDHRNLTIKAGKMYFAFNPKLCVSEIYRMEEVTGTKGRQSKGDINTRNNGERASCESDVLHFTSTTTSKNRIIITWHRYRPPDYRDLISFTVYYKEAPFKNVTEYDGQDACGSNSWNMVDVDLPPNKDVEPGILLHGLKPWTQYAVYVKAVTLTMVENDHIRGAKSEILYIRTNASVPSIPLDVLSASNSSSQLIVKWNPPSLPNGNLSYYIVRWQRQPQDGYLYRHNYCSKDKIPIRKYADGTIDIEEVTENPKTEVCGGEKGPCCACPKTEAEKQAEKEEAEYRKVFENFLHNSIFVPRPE
Sequence of Insulin-like growth factor 1 receptor (Homo sapiens) (P08069 741-1367 limits assumed): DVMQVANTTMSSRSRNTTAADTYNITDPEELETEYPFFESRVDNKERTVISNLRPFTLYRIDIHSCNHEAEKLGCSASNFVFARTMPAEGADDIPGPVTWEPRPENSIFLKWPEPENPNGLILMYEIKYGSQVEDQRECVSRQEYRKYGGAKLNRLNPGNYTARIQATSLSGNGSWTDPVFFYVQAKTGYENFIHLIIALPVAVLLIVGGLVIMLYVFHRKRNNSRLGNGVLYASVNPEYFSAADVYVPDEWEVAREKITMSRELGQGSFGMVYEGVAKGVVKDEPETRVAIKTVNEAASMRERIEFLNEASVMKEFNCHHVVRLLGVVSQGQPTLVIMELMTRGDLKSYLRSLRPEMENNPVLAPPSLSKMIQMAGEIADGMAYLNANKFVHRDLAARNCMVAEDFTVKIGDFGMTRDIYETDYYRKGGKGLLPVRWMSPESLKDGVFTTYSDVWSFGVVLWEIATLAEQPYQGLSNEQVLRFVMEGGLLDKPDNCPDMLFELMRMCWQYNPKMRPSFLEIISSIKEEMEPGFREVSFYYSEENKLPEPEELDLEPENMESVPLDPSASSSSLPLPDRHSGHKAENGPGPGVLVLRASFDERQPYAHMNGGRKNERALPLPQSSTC
Regarding `COc1ccc(-c2nc3cc(-c4csc(C(=O)NCCC(C)C)c4)cnc3[nH]2)cc1`, the Activity stood at 105%.
As for `COc1ccc(-c2nc3cc(-c4csc(C(=O)NCC(C)(C)C)c4)cnc3[nH]2)cc1`, the Activity stood at 98%.
Same read-out and setting: the figure for `COc1ccc(-c2nc3cc(-c4csc(C(=O)NCC(C)C)c4)cnc3[nH]2)cc1` is 108%.

The target in another assay is T1, Dual specificity mitogen-activated protein kinase kinase 7 (Homo sapiens) (UniProt O14733).
T1 sequence (whole entry): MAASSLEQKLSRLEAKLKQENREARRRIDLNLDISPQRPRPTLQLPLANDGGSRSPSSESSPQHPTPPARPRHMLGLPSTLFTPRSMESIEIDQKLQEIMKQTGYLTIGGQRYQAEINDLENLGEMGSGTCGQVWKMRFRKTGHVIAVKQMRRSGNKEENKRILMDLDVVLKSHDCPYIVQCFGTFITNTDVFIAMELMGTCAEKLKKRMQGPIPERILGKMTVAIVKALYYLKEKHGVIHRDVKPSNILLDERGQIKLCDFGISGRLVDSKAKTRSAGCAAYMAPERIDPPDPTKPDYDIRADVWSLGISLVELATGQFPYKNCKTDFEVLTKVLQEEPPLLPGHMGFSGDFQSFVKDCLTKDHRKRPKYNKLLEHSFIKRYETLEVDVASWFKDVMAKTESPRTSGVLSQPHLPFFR
The assay can be described thus: Inhibition of human MKK7beta assessed as residual activity at 1 uM relative to control.
Take `COc1ccc(-c2nc3cc(-c4csc(C(=O)NCCC(C)C)c4)cnc3[nH]2)cc1`: the Activity was determined as 92%.
As for `COc1ccc(-c2nc3cc(-c4csc(C(=O)NCC(C)(C)C)c4)cnc3[nH]2)cc1`, the Activity was 88%.
Consider `COc1ccc(-c2nc3cc(-c4csc(C(=O)NCC(C)C)c4)cnc3[nH]2)cc1`, for which the Activity was 94%.

The target of the next assay is T2, Phosphatidylinositol 5-phosphate 4-kinase type-2 alpha (Homo sapiens) (UniProt P48426).
T2 sequence (whole entry): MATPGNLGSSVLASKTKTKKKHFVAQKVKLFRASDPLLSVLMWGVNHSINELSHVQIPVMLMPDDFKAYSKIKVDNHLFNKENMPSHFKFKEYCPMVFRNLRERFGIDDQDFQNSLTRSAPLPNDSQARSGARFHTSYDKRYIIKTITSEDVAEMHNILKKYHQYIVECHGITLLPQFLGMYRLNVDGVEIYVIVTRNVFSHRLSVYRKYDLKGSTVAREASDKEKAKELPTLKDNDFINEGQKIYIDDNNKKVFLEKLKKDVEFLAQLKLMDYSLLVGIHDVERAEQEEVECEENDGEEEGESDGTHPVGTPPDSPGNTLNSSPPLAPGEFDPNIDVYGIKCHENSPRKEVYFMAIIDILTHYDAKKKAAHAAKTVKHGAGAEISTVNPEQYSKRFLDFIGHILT
The assay can be described thus: Inhibition of human PIP4K2alpha assessed as residual activity at 1 uM relative to control.
On to `COc1ccc(-c2nc3cc(-c4csc(C(=O)NCCC(C)C)c4)cnc3[nH]2)cc1`, for which the Activity turned out to be 95%.
Take `COc1ccc(-c2nc3cc(-c4csc(C(=O)NCC(C)(C)C)c4)cnc3[nH]2)cc1`: the Activity turned out to be 87%.
On to `COc1ccc(-c2nc3cc(-c4csc(C(=O)NCC(C)C)c4)cnc3[nH]2)cc1`, for which the Activity was 85%.

For a further assay, the target named is Proto-oncogene tyrosine-protein kinase Src (Homo sapiens) (UniProt P12931). The assay can be described thus: Inhibition of human cSRC assessed as residual activity at 1 uM relative to control.
Turning to `COc1ccc(-c2nc3cc(-c4csc(C(=O)NCCC(C)C)c4)cnc3[nH]2)cc1`, the Activity amounted to 47%.
The same measure, in the same setting: as for `COc1ccc(-c2nc3cc(-c4csc(C(=O)NCC(C)(C)C)c4)cnc3[nH]2)cc1`, the figure is 85%; as for `COc1ccc(-c2nc3cc(-c4csc(C(=O)NCC(C)C)c4)cnc3[nH]2)cc1`, 50%.

For a further assay, the target named is Proto-oncogene tyrosine-protein kinase ROS (Homo sapiens) (UniProt P08922). As to the kind of experiment: Inhibition of human ROS assessed as residual activity at 1 uM relative to control.
Sequence of Proto-oncogene tyrosine-protein kinase ROS (Homo sapiens) (P08922 whole entry): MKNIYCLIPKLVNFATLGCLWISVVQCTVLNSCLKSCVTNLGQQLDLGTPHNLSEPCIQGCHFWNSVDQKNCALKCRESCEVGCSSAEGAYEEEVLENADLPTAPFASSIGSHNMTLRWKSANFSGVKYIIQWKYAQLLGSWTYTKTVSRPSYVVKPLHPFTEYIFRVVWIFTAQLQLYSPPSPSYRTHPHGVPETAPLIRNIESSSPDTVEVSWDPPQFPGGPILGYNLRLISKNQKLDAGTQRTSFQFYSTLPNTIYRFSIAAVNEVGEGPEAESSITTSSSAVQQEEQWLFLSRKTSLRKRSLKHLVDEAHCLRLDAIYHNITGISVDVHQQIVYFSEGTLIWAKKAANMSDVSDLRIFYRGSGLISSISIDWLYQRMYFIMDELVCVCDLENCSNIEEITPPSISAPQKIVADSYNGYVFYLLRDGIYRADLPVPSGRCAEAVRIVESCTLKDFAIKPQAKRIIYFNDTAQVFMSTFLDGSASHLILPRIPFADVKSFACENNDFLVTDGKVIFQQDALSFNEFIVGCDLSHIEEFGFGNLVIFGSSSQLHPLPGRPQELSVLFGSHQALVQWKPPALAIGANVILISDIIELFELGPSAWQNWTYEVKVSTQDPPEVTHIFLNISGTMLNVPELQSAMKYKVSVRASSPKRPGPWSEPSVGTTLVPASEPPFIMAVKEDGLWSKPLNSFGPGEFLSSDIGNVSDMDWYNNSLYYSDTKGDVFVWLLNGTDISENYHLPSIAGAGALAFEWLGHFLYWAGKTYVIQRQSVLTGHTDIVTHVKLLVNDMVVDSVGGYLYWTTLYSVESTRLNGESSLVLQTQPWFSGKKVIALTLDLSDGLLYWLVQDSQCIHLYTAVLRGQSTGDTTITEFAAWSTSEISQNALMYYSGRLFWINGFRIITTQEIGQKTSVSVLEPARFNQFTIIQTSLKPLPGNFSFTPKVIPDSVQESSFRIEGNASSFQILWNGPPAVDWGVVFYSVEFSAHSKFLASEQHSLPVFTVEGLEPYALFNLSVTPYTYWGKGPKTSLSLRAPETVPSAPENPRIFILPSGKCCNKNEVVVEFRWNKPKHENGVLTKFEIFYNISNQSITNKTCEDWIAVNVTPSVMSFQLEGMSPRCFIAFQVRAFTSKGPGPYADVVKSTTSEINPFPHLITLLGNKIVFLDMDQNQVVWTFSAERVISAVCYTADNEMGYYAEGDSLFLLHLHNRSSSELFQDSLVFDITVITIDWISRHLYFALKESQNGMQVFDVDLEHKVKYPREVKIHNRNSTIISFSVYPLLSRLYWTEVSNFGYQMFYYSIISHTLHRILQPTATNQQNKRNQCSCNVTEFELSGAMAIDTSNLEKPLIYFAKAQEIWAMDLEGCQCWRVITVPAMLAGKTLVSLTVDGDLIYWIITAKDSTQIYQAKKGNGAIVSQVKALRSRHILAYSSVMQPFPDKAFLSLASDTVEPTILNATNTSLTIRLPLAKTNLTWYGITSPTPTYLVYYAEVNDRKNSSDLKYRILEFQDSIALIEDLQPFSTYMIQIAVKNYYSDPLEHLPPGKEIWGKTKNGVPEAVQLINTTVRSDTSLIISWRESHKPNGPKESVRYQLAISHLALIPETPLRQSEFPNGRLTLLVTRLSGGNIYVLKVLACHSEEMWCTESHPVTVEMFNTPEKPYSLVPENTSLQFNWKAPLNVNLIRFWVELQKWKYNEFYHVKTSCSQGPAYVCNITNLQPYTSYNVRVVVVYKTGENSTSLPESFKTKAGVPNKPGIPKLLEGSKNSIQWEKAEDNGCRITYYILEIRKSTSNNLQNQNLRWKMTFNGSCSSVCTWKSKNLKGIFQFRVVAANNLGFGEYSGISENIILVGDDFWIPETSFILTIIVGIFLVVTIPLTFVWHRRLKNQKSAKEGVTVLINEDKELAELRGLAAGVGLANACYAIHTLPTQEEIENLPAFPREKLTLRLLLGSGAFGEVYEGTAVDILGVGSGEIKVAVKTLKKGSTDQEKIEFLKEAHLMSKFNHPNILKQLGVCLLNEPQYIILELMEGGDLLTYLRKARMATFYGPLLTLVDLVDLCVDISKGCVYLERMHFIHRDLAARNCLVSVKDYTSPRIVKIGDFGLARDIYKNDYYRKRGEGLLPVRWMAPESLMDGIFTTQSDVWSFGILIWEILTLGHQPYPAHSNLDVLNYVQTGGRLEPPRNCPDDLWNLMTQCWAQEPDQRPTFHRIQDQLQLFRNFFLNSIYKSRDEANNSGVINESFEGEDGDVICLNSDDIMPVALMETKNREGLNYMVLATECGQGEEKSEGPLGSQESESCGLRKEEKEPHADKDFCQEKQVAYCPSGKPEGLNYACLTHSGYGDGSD
Turning to `COc1ccc(-c2nc3cc(-c4csc(C(=O)NCCC(C)C)c4)cnc3[nH]2)cc1`, the Activity is 82%.
Take `COc1ccc(-c2nc3cc(-c4csc(C(=O)NCC(C)(C)C)c4)cnc3[nH]2)cc1`: the Activity was 81%.
Consider `COc1ccc(-c2nc3cc(-c4csc(C(=O)NCC(C)C)c4)cnc3[nH]2)cc1`, for which the Activity is 93%.

For a further assay, the target named is T3, Interleukin-1 receptor-associated kinase 4 (Homo sapiens) (UniProt Q9NWZ3).
T3 sequence (whole entry): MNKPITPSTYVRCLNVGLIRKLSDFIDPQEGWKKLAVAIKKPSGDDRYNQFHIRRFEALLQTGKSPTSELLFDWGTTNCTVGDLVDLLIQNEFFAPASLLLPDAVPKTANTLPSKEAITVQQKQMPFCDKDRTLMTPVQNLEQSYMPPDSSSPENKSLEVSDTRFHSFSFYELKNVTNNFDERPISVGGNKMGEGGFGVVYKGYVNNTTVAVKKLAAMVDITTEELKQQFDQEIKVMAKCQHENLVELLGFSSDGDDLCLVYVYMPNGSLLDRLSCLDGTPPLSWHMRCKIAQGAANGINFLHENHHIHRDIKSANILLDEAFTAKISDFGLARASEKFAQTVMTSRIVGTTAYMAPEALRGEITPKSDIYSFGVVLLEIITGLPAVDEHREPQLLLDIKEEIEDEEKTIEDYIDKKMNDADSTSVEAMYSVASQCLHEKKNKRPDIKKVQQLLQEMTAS
As to the kind of experiment: Inhibition of human IRAK4 assessed as residual activity at 1 uM relative to control.
`COc1ccc(-c2nc3cc(-c4csc(C(=O)NCCC(C)C)c4)cnc3[nH]2)cc1`: the Activity amounted to 81%.
On the same count and under the same terms, the figure for `COc1ccc(-c2nc3cc(-c4csc(C(=O)NCC(C)(C)C)c4)cnc3[nH]2)cc1` is 81%; for `COc1ccc(-c2nc3cc(-c4csc(C(=O)NCC(C)C)c4)cnc3[nH]2)cc1` it is 75%.

The next assay has as its target T4, NUAK family SNF1-like kinase 1 (Homo sapiens) (UniProt O60285).
T4 sequence (whole entry): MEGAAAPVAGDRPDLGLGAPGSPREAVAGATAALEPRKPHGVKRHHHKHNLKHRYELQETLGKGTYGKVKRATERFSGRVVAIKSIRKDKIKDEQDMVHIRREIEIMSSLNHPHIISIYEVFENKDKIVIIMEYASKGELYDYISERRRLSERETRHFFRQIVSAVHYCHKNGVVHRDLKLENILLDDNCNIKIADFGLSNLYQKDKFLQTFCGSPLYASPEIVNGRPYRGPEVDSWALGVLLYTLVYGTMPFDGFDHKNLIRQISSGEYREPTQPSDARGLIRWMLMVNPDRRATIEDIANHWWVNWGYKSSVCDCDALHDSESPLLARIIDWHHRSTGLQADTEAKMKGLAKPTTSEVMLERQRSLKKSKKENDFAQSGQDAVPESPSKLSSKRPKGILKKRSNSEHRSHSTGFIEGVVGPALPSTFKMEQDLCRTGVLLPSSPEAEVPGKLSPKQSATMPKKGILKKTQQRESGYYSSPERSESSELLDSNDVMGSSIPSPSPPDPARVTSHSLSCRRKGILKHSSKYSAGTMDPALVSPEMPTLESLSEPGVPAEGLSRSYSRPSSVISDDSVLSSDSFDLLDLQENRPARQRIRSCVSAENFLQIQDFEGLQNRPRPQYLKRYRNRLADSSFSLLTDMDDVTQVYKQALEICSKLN
The assay can be described thus: Inhibition of human ARK5 assessed as residual activity at 1 uM relative to control.
For the compound `COc1ccc(-c2nc3cc(-c4csc(C(=O)NCCC(C)C)c4)cnc3[nH]2)cc1`, the Activity is 76%.
The same measure, in the same setting: the figure for `COc1ccc(-c2nc3cc(-c4csc(C(=O)NCC(C)(C)C)c4)cnc3[nH]2)cc1` is 79%; for `COc1ccc(-c2nc3cc(-c4csc(C(=O)NCC(C)C)c4)cnc3[nH]2)cc1` it is 68%.

A further assay deals with High affinity nerve growth factor receptor (Homo sapiens) (UniProt P04629). As to the kind of experiment: Inhibition of human TRKA assessed as residual activity at 1 uM relative to control.
On to `COc1ccc(-c2nc3cc(-c4csc(C(=O)NCCC(C)C)c4)cnc3[nH]2)cc1`, for which the Activity came out at 67%.
Same read-out and setting: the figure for `COc1ccc(-c2nc3cc(-c4csc(C(=O)NCC(C)(C)C)c4)cnc3[nH]2)cc1` is 77%; for `COc1ccc(-c2nc3cc(-c4csc(C(=O)NCC(C)C)c4)cnc3[nH]2)cc1` it is 59%.

For a further assay, the target named is Serine/threonine-protein kinase 10 (Homo sapiens) (UniProt O94804). The assay can be described thus: Inhibition of human LOK assessed as residual activity at 1 uM relative to control.
Sequence of Serine/threonine-protein kinase 10 (Homo sapiens) (O94804 whole entry, looked up): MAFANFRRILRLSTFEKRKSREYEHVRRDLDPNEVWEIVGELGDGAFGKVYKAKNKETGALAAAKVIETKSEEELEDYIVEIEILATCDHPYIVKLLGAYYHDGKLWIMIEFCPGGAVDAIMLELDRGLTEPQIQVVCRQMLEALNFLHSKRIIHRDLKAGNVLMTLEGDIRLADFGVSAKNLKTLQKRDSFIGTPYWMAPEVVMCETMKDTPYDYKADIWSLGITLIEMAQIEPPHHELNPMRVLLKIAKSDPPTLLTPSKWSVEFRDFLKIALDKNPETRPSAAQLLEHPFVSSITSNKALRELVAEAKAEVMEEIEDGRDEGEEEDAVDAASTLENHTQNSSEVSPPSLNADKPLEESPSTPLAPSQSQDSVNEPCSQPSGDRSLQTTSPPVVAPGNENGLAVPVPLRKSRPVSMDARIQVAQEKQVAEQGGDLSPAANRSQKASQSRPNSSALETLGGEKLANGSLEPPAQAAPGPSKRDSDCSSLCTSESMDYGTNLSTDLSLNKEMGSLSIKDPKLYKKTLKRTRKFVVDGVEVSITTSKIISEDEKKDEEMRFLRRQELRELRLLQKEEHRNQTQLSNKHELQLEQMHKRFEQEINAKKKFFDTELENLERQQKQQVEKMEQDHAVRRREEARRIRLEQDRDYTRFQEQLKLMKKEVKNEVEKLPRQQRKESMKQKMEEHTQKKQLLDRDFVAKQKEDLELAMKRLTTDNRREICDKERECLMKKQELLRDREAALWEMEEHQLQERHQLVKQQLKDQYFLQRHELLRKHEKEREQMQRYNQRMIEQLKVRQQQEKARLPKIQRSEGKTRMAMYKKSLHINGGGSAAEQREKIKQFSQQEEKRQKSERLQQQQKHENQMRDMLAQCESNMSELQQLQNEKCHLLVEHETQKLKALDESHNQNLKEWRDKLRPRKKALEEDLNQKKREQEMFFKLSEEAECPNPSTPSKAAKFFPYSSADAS
As for `COc1ccc(-c2nc3cc(-c4csc(C(=O)NCCC(C)C)c4)cnc3[nH]2)cc1`, the Activity came to 97%.
On the same count and under the same terms, the figure for `COc1ccc(-c2nc3cc(-c4csc(C(=O)NCC(C)(C)C)c4)cnc3[nH]2)cc1` is 102%; for `COc1ccc(-c2nc3cc(-c4csc(C(=O)NCC(C)C)c4)cnc3[nH]2)cc1` it is 100%.
